Legend:
Conditions in all cases: 72 h
U2OS [1] = experiment: cell viability relative to DMSO; higher = less toxic
Calu-3 [2] = experiment: as above
Caco-2 [3] = experiment: as above
Vero E6 [4] = experiment: as above
HepG2 [5] = experiment: as above
U2OS [6] = experiment: relative viability EC50 (midpoint between 100% and the lowest measured viability); higher = less toxic
Calu-3 [7] = experiment: as above
Vero E6 [8] = experiment: as above
HepG2 [9] = experiment: as above
U2OS [10] = experiment: drug sensitivity score (DSS) for viability; higher = more toxic; extreme values may be limits of the assay
Calu-3 [11] = experiment: as above
Caco-2 [12] = experiment: as above
Vero E6 [13] = experiment: as above
HepG2 [14] = experiment: as above
Caco-2 [15] = experiment: relative viability EC50 (midpoint between 100% and the lowest measured viability); higher = less toxic

Row | Compound | cell viability (U2OS [1]; 1 nM) [%] | cell viability (U2OS [1]; 10 nM) [%] | cell viability (U2OS [1]; 100 nM) [%] | cell viability (U2OS [1]; 1000 nM) [%] | cell viability (U2OS [1]; 10000 nM) [%] | cell viability (Calu-3 [2]; 1 nM) [%] | cell viability (Calu-3 [2]; 10 nM) [%] | cell viability (Calu-3 [2]; 100 nM) [%] | cell viability (Calu-3 [2]; 1000 nM) [%] | cell viability (Calu-3 [2]; 10000 nM) [%] | cell viability (Caco-2 [3]; 1 nM) [%] | cell viability (Caco-2 [3]; 10 nM) [%] | cell viability (Caco-2 [3]; 100 nM) [%] | cell viability (Caco-2 [3]; 1000 nM) [%] | cell viability (Caco-2 [3]; 10000 nM) [%] | cell viability (Vero E6 [4]; 1 nM) [%] | cell viability (Vero E6 [4]; 10 nM) [%] | cell viability (Vero E6 [4]; 100 nM) [%] | cell viability (Vero E6 [4]; 1000 nM) [%] | cell viability (Vero E6 [4]; 10000 nM) [%] | cell viability (HepG2 [5]; 1 nM) [%] | cell viability (HepG2 [5]; 10 nM) [%] | cell viability (HepG2 [5]; 100 nM) [%] | cell viability (HepG2 [5]; 1000 nM) [%] | cell viability (HepG2 [5]; 10000 nM) [%] | relative viability EC50 (U2OS [6]) [µM] | relative viability EC50 (Calu-3 [7]) [µM] | relative viability EC50 (Vero E6 [8]) [µM] | relative viability EC50 (HepG2 [9]) [µM] | drug sensitivity score (U2OS [10]) | drug sensitivity score (Calu-3 [11]) | drug sensitivity score (Caco-2 [12]) | drug sensitivity score (Vero E6 [13]) | drug sensitivity score (HepG2 [14]) | relative viability EC50 (Caco-2 [15]) [µM]
1 | Nc1nc(NCCc2ccc(O)cc2)nc2nc(-c3ccco3)nn12 | 99.5 | 103 | 102 | 103 | 94.5 | 96.1 | 110 | 97.3 | 98.2 | 106 | 97.2 | 94.5 | 103 | 104 | 72.5 | 95.1 | 95.3 | 98.1 | 94.6 | 95 | 109 | 98.6 | 103 | 49.2 | 32.2 | > 10 | > 10 | > 10 | 0.648 | 0 | 0 | 0.9 | 0 | 9.7 | 
2 | CN1C(=O)N(c2cc(Cl)cc(Cl)c2)C(=O)[C@]12CN(Cc1cc(C(=O)O)cs1)C[C@H]2c1ccc(C#N)cc1 | 104 | 97.8 | 101 | 103 | 100 |  |  |  |  |  | 109 | 94.8 | 100 | 103 | 93.7 | 98.3 | 101 | 95.5 | 96.6 | 105 | 101 | 112 | 109 | 98.1 | 104 | > 10 |  | > 10 | > 10 | 0 |  | 0 | 0 | 0 | > 10
3 | OCc1c[nH]c2ccccc12 [indole-3-carbinol] | 99.9 | 101 | 99.3 | 104 | 93.7 |  |  |  |  |  | 103 | 103 | 99 | 97.8 | 87.4 | 104 | 97.1 | 93.1 | 99.2 | 97.5 | 105 | 96 | 99.9 | 88.1 | 101 | > 10 |  | > 10 | > 10 | 0 |  | 0.2 | 0 | 0 | > 10
4 | CC(C)(O)CC(=O)NCCn1ccc2ncnc(Nc3ccc(Oc4cccc(C(F)(F)F)c4)c(Cl)c3)c21 [TAK-285] | 99.1 | 96.2 | 95 | 95.9 | 80.2 | 109 | 93.7 | 76.1 | 48.2 | 31 | 103 | 90.9 | 92.8 | 85 | 70 | 95.7 | 92.8 | 92.6 | 78.2 | 37.8 | 106 | 110 | 113 | 105 | 81.1 | > 10 | 0.228 | 1.41 | > 10 | 1 | 12.6 | 2.9 | 5.9 | 0.3 | 
5 | Cn1c(=O)c(F)c(Nc2ccc(I)cc2F)c2c(=O)n(C[C@@H](O)CO)cnc21 [TAK-733] | 94.5 | 98.7 | 85.9 | 36 | 10.8 | 88.5 | 74.4 | 53.3 | 31.8 | 24.6 | 89.4 | 84.6 | 70.7 | 66.4 | 58.7 | 96.9 | 82.9 | 62.3 | 51.6 | 42.2 | 88.1 | 41.2 | 24.8 | 19.5 | 17.2 | 0.435 | 0.0323 | 0.042 | 0.0047 | 13.8 | 21.1 | 11.2 | 15.2 | 33.3 | 
6 | CC1=C(CCC(=O)O)c2cc3[nH]c(cc4nc(cc5[nH]c(cc1n2)c(C)c5C(C)O)C(C)=C4C(C)O)c(C)c3CCC(=O)O (stereo not drawn) [hematoporphyrin] | 100 | 96.7 | 102 | 93.6 | 94.5 | 97.8 | 89 | 87.2 | 94.5 | 88.1 | 109 | 96.3 | 96.6 | 105 | 74.1 | 106 | 106 | 98.8 | 104 | 80.3 | 103 | 99.9 | 91.3 | 99.1 | 79.2 | > 10 | > 10 | > 10 | > 10 | 0 | 0.6 | 0.8 | 0.4 | 0.8 | 
7 | COc1ccn2ncc(-c3nc4[nH]nc(NC(=O)c5ccc(F)cc5)c4cc3F)c2c1 [CW-008] |  |  |  |  |  | 109 | 107 | 113 | 97.8 | 97.2 | 99.1 | 92.5 | 91.2 | 89.6 | 87.7 | 93.6 | 98.5 | 99.4 | 97 | 89.1 | 109 | 102 | 95.2 | 101 | 93.1 |  | > 10 | > 10 | > 10 |  | 0 | 0.6 | 0.1 | 0 | > 10
8 | Cc1cc(C)c(N)c(C#Cc2cccc(F)c2)n1 | 102 | 97.5 | 102 | 97.3 | 90.9 | 104 | 102 | 95.9 | 102 | 87.7 | 99.6 | 88.9 | 101 | 93.2 | 71.6 | 99.5 | 106 | 98.6 | 103 | 90.8 | 95.3 | 98.4 | 81.6 | 88.1 | 90.7 | > 10 | > 10 | > 10 | > 10 | 0 | 0 | 2.2 | 0 | 0.7 | 
9 | CCNCc1cc(C(C)(C)C)c(O)c(C(C)(C)C)c1 | 102 | 103 | 98.5 | 101 | 96.5 |  |  |  |  |  | 103 | 97.8 | 96.1 | 98.2 | 99.8 | 101 | 104 | 96.7 | 97.2 | 105 | 99.1 | 99.7 | 99.6 | 98.4 | 105 | > 10 |  | > 10 | > 10 | 0 |  | 0 | 0 | 0 | > 10
10 | CN1CCCN=C1/C=C/c1cccs1 [pyrantel-pamoate] | 99.6 | 96.9 | 99.1 | 95.3 | 101 |  |  |  |  |  | 93.3 | 94.8 | 98.8 | 96 | 100 | 107 | 99.9 | 96.4 | 101 | 99.4 | 97.4 | 106 | 103 | 104 | 92.6 | > 10 |  | > 10 | > 10 | 0 |  | 0 | 0 | 0 | > 10
11 | O=c1[nH]cnc2ccccc12 [4-HQN] | 95.2 | 98.7 | 94.5 | 101 | 102 |  |  |  |  |  | 86.3 | 94.6 | 91 | 101 | 107 | 99.9 | 93.8 | 94.8 | 92.1 | 100 | 104 | 86.9 | 113 | 99.1 | 108 | > 10 |  | > 10 | > 10 | 0 |  | 0 | 0 | 0 | > 10
12 | COc1cc2ncnc(Nc3ccc(F)c(Cl)c3)c2cc1NC(=O)/C=C/CN1CCCCC1 [dacomitinib] | 94.3 | 97.3 | 94.5 | 94.7 | 43.6 | 83.5 | 73.7 | 40.8 | 32.1 | 17 | 95.3 | 89.6 | 90.6 | 69.3 | 71.2 | 99.6 | 92.7 | 59.5 | 48.2 | 39.5 | 104 | 97.8 | 91.3 | 97 | 37.8 | 2.39 | 0.027 | 0.0579 | 2.79 | 3.9 | 23.8 | 5.6 | 15.8 | 3.8 | 
13 | CCN(CC)CCNC(=O)c1cc(S(C)(=O)=O)ccc1OC [tiapride] |  |  |  |  |  | 97.5 | 89.2 | 101 | 106 | 100 | 104 | 93.5 | 95.9 | 100 | 101 | 99.9 | 100 | 103 | 99.5 | 104 | 102 | 103 | 94.2 | 103 | 97.5 |  | > 10 | > 10 | > 10 |  | 0 | 0 | 0 | 0 | > 10
14 | C=CC(C)(O)CCC=C(C)C (stereo not drawn) [linalool] | 103 | 95.7 | 97.4 | 95 | 97.9 |  |  |  |  |  | 110 | 99.2 | 99.2 | 93.7 | 99.2 | 101 | 104 | 96.3 | 102 | 98.7 | 95.5 | 102 | 96.5 | 100 | 95.2 | > 10 |  | > 10 | > 10 | 0 |  | 0 | 0 | 0 | > 10
15 | O=C1CN2Cc3c(ccc(Cl)c3Cl)N=C2N1 [anagrelide] |  |  |  |  |  |  |  |  |  |  | 101 | 97.8 | 97.6 | 99.8 | 96.9 | 106 | 107 | 103 | 102 | 99.3 | 101 | 102 | 104 | 101 | 96.7 |  |  | > 10 | > 10 |  |  | 0 | 0 | 0 | > 10
16 | COC(=O)C1=C(C)NC(C)=C(C(=O)OC2CCCN(Cc3ccccc3)C2)C1c1cccc([N+](=O)[O-])c1 (stereo not drawn) [benidipine] | 100 | 102 | 93.8 | 99.6 | 81.7 | 99 | 98.8 | 106 | 102 | 77.8 | 97.7 | 108 | 101 | 97 | 64.4 | 102 | 101 | 106 | 99 | 104 | 109 | 101 | 105 | 105 | 80.2 | > 10 | > 10 | > 10 | > 10 | 0.5 | 0.6 | 2.1 | 0 | 0.4 | 

From the supplement of paper PMC13380429
